Assay results reported in paper PMC9182086, “Identification of New Non-BBB Permeable Tryptophan Hydroxylase Inhibitors for Treating Obesity and Fatty Liver Disease” (Molecules, 2022).

Experiments:
hERG channel protein = biological target: T1, hERG channel protein (Homo sapiens, UniProt Q12809); experiment: hERG inhibition (Predictor hERG FP binding kit); settings: at 10 uM
T1 construct: purchased Thermo Fisher Scientific, Inc
Protocol: The inhibition of binding affinity by small molecules was measured using the PredictorTM hERG FP kit (Thermo Fisher Scientific, Inc., Rockford, IL, USA). The procedure was carried out in accordance with the manufacturer's instructions. Briefly, tracer (PredictorTM hERG tracer red) was prepared with dilution in the binding buffer. The binding assay was conducted in 384 well black flat-bottom microplates (Corning Life Sciences, Lowell, MA, USA) after the serial addition of 5 μL of a 4 nM tracer, 5 μL of test compounds, and a 10 μL membrane fraction containing hERG channel protein. The mixtures were incubated at room temperature for 2 h. The fluorescence polarization (FP) was measured with an excitation filter of 530 nm and an emission filter of 585 nm using a microplate reader (Infinite […]; Tecan, Mannedorf, Switzerland).

[1] = Liver microsomal stability (human); type: in vitro ADME; settings: after 30 min incubation, 1 µM
Protocol: For the liver microsomal activity, test compounds were incubated with rat and mouse’s liver microsomes, respectively, at a final concentration of 1 µM, in the presence of an NADPH regeneration system in 0.1 M potassium phosphate buffer (pH 7.4) for […] at 37 °C in shaking incubator. The microsomal reaction was terminated by adding four volumes of ice-cold acetonitrile and then centrifuged at 4000 rpm for 20 min. The supernatant was collected and analyzed by a LC-MS/MS system. The percentage of the parent compound remaining was calculated by comparing peak areas.

HFD-fed C57BL/6J mice = experiment: In vivo efficacy test in high-fat diet fed mice; design: species or system mouse; settings: vs vehicle
Protocol: All animal study protocols were approved by the Institutional Animal Care and Use Committee at the Korea Advanced Institute of Science and Technology. Male C57BL/6J mice were purchased from SLC (Shizuoka, Japan) and acclimatized for a week. Mice were housed in a humidity and temperature-controlled environment under a 12 h light-dark cycle with ad libitum access to water and food. After acclimatization, male mice were fed a high-fat diet (HFD, 60% fat calories, Research diet; New Brunswick, NJ) and received daily treatment with TPH1 inhibitors. […] Compound 18i was dissolved in 5% dimethyl sulfoxide (DMSO) (Sigma, St. Louis, MO, USA) and 25% β-cyclodextrin (Sigma, St. Louis, MO, USA). Vehicle or compound 18i (100 mg kg^−1) was injected intraperitoneally in mice for 10 days after two weeks of HFD feeding. Both compounds 19 and 21 were prepared in 10% DMSO and 10% Kolliphor EL (Sigma, St. Louis, MO, USA). Vehicle and 100 mg kg^−1 of compound 19 or compound 21 were administered daily by intraperitoneal injection or oral feeding, respectively, concomitant to the initiation of HFD feeding. For analyzing blood glucose concentration, glucose in blood collected from the tail vein was measured after fasting mice for 16 h using a Gluco Dr. Top glucometer (Allemedicus, Anyang, Korea). Body weight was measured daily and mice were sacrificed for harvesting adipose tissue and liver.
Tissue samples were fixed in 10% formalin, embedded in paraffin, and cut into 5 μm thick sections, followed by deparaffinization and rehydration for H&E staining and UCP1 immunohistochemistry. After heat-induced antigen retrieval with a citrate buffer (pH 6.0) for 10 min at 95°C, tissue sections were incubated with BLOXALL Blocking solution (Vector Laboratories, Burlingame, CA, USA) to block endogenous peroxidase, followed by incubation with 2% normal goat serum in phosphate-buffered saline (PBS) for 30 min at room temperature to block nonspecific binding. Sections were incubated overnight with the anti-UCP1 primary antibody diluted 1:200 in 2% normal goat serum in PBS (Abcam, Cambridge, UK) at 4 °C, followed by 30 min incubation with biotinylated anti-rabbit IgG secondary antibody diluted 1:400 in PBS for 30 min at room temperature. After incubation with Vectastain […] reagent (Vector Laboratories) for 30 min, peroxidase activity was visualized with 3,3′-diaminobenzidine substrates (Vector Laboratories). For measuring average adipocyte size, we analyzed three random fields of H&E stained micrographs per adipose tissue sample from two representative mice of each group using AdipoCount software.
Fresh liver tissues were flash frozen in O.C.T. compound (Sakura Finetek, Torrance, CA, USA) and 10 μm cryostat sections were collected on glass slides. Sections were allowed to air-dry for 1 h, rinsed with PBS for 5 min, and washed with distilled water for 5 min. After washing, sections were placed in 30% isopropanol for 5 min, 60% isopropanol for 5 min twice, and then stained in Oil Red O solution (0.5% Oil red O (Sigma, St. Louis, MO, USA) dissolved in 60% isopropanol) for 15 min. The stained sections were rinsed twice with distilled water, mounted, coverslipped, and documented using bright field microscopy.

[2] = Blood brain barrier PK: plasma and brain levels after iv dosing; type: in vivo, male SD rats; settings: male rats, 5 mg/kg iv; for BBB penetration: brain level: BQL = below the quantification limit
Protocol: The biodistribution study in plasma and brain tissue was performed using eight-week-old male SD rats (Orient Bio Inc., Seongnam, Korea). Dosing vehicles were composed of DMSO, PEG400, and deionized water (5:40:55, v/v/v). 18i compound was administrated at a dose of 5 mg/kg via intravenous (I.V.). […] Brain tissues were rinsed with saline and four volumes of acetronitrile containing disopyramide were added as an internal standard for LC-MS/MS analysis. The brain samples were homogenized using a sonicator (IKA Labortechnik T10 basic ULTRA-TURRAX, Staufen, Germany) for 10 s on the ice. The plasma samples were added to nine volumes of acetonitrile and vortexed for 5 min. The samples were centrifuged (15,000 RPM, 4 °C, 10 min). The supernatant was collected and analyzed by an LC-MS/MS system.
The LC-MS/MS analysis was performed on an Agilent 1200 series (Agilent Technologies, Santa Clara, CA, USA) with an API 4000 linear ion trap triple quadruple mass spectrometer (AB Sciex, CA, USA). The chromatographic separation of the drug was carried out using a kinetex column (100 × 2.1 mm, 3 μm, Phenomenex, CA USA) with a SecurityGuard C18 guard column (4 mm × 2.0 mm i.d., Phenomenex). The flow rate was 300 µL/min with a mobile phase consisting of 0.1% formic acid in water (eluent A) and 0.1% formic acid in acetonitrile (eluent B) by linear gradient condition as follows: starting with 0 to 0.3 min, B: 5%; 0.3 to 2.5 min, B: 5 → 95%; 2.5 to 2.9 min, B: 95%; 2.9 to 3.0 min, B: 95 → 5%, and then re-equilibrated to initial conditions until 3 min. The total run time was 6 min and the injection volume of 5 μL.

T1 sequence (Q12809 whole entry): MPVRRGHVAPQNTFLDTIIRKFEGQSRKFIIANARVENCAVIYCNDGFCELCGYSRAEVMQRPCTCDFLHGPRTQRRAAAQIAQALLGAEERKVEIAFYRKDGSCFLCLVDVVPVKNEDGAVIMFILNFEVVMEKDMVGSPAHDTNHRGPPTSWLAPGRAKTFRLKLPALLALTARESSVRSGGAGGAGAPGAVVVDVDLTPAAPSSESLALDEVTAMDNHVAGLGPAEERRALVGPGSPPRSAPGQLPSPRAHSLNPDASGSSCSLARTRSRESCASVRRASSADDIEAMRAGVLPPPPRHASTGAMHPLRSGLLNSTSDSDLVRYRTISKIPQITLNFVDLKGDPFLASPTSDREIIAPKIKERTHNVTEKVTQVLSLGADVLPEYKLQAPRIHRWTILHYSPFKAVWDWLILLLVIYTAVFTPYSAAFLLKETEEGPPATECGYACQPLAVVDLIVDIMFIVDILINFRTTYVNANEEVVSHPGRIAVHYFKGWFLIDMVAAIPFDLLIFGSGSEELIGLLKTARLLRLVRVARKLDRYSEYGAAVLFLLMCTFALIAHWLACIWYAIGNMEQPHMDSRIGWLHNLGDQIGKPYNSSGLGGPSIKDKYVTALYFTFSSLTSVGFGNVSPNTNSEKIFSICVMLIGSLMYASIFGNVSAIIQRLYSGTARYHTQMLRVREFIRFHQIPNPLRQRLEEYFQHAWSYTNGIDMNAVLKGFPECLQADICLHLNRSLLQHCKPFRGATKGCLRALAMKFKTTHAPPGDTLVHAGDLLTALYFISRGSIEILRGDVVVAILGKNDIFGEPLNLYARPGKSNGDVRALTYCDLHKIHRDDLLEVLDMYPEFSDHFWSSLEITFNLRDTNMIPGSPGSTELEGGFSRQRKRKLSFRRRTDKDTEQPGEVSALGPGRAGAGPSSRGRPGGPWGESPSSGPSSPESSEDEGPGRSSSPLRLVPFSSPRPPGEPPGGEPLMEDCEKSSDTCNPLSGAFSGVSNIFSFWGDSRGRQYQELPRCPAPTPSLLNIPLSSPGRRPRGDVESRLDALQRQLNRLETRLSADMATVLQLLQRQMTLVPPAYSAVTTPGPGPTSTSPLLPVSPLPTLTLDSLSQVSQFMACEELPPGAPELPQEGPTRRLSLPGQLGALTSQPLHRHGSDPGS

concentration at 0.5 h ([2]; SD, rat, plasma, 0.5 h, read-out: BBB penetration: plasma level): 2270 ng/mL | concentration at 3 h ([2]; SD, rat, plasma, 3 h, read-out: BBB penetration: plasma level): 1440 ng/mL | BBB penetration: plasma level ([2]; 0.5 h): Plasma: 0.5 h: 2266 ng/mL | BBB penetration: brain level ([2]; 0.5 h): Brain: 0.5 h: BQL ^a | BBB penetration: plasma level ([2]; 3 h): 3 h: 1439 ng/mL | BBB penetration: brain level ([2]; 3 h): 3 h: BQL | level below the quantification limit (text says plasma) ([2]; time not stated): < 7 ng/mL
SMILES: Cc1ccn(-c2cc(Cl)ccc2[C@@H](Oc2ncnc3c(-c4ccc(C[C@H](N)C(=O)O)cc4)csc23)C(F)(F)F)n1.Cl [Compound 18i, (S)-2-amino-3-(4-(4-((R)-1-(4-chloro-2-(3-methyl-1H-pyrazol-1-yl)phenyl)-2,2,2-trifluoroethoxy)thieno[3,2-d]pyrimidin-7-yl)phenyl)propanoic acid hydrochloride]
Herg inhibition (hERG channel protein): <1% inhibition at 10 uM | Liver microsomal stability (human), parent remained [1]: 99% parent remained after 30 min incubation | Body weight gain (HFD-fed C57BL/6J mice; 100 mg/kg ip daily for 10 days after two weeks of HFD): blunted weight gain | eWAT and BAT adipocyte size (histology) (HFD-fed C57BL/6J mice; 100 mg/kg ip daily for 10 days): significant reduction | Fasting blood glucose levels (HFD-fed C57BL/6J mice; 16 h fasting): lower fasting blood glucose levels
